Laboratory results taken from PubChem BioAssay AID328 (DTP/NCI, 2004).
Several values for one entry are separate records, joined by “and”; a condition that tells them apart may be missing. Equal values may be shown once. Inconclusive results and toxic doses are left out.

Tested on: BDF1 mice, P388 leukemia ip, median survival T/C
Experiment: NCI In Vivo Anticancer Drug Screen. Data for tumor model P388 Leukemia (intraperitoneal) in B6D2F1 (BDF1) mice
Conditions: endpoint: median survival time, higher = longer survival
How it was run: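 In tumour-bearing mice, survival after compound treatment is set against the vehicle group and given as a quotient.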

[1] = dose: 12.5 mg/kg/injection, schedule: Q01DX009 (ip), vehicle: saline
[2] = dose: 25.0 mg/kg/injection, schedule: Q01DX009 (ip), vehicle: saline with Tween-80
[3] = dose: 50.0 mg/kg/injection, schedule: Q01DX009 (ip), vehicle: saline with Tween-80
[4] = dose: 100.0 mg/kg/injection, schedule: Q01DX009 (ip), vehicle: saline with Tween-80
[5] = dose: 100.0 mg/kg/injection, schedule: Q01DX009 (ip), vehicle: Klucel (hydroxypropylcellulose) (HPC)
[6] = dose: 100.0 mg/kg/injection, schedule: Q04DX003 (ip), vehicle: Klucel (hydroxypropylcellulose) (HPC)
[7] = dose: 200.0 mg/kg/injection, schedule: Q01DX009 (ip), vehicle: Klucel (hydroxypropylcellulose) (HPC)
[8] = dose: 200.0 mg/kg/injection, schedule: Q04DX003 (ip), vehicle: Klucel (hydroxypropylcellulose) (HPC)
[9] = dose: 400.0 mg/kg/injection, schedule: Q01DX009 (ip), vehicle: Klucel (hydroxypropylcellulose) (HPC)
[10] = dose: 400.0 mg/kg/injection, schedule: Q04DX003 (ip), vehicle: Klucel (hydroxypropylcellulose) (HPC)
[11] = dose: 6.25 mg/kg/injection, schedule: Q01DX009 (ip), vehicle: saline
[12] = dose: 25.0 mg/kg/injection, schedule: Q01DX009 (ip), vehicle: saline
[13] = dose: 50.0 mg/kg/injection, schedule: Q01DX009 (ip), vehicle: saline
[14] = dose: 100.0 mg/kg/injection, schedule: Q04DX003 (ip), vehicle: saline with Tween-80
[15] = dose: 200.0 mg/kg/injection, schedule: Q01DX009 (ip), vehicle: saline with Tween-80
[16] = dose: 200.0 mg/kg/injection, schedule: Q04DX003 (ip), vehicle: saline with Tween-80
[17] = dose: 400.0 mg/kg/injection, schedule: Q01DX009 (ip), vehicle: saline with Tween-80
[18] = dose: 400.0 mg/kg/injection, schedule: Q04DX003 (ip), vehicle: saline with Tween-80

With `Nc1ncnc2c1ncn2C(C=O)OC(C=O)CO` (stereo unspecified) the T/C (dose: 0.88 mg/kg/injection, schedule: Q01DX009 (ip), vehicle: saline) was 106 % of control, the T/C (dose: 1.0 mg/kg/injection, schedule: Q01DX009 (ip), vehicle: carboxymethylcellulose (CMC)) was 119 % of control and the T/C (dose: 1.33 mg/kg/injection, schedule: Q01DX009 (ip), vehicle: saline) was 116 % of control. For the same compound, the T/C (dose: 2.0 mg/kg/injection, schedule: Q01DX009 (ip), vehicle: saline) was 119 % of control, the T/C (dose: 2.5 mg/kg/injection, schedule: Q04DX003 (ip), vehicle: carboxymethylcellulose (CMC)) was 113 % of control and the T/C (dose: 3.3 mg/kg/injection, schedule: Q01DX009 (ip), vehicle: saline) was 171 % of control. The T/C (dose: 4.0 mg/kg/injection, schedule: Q01DX009 (ip), vehicle: carboxymethylcellulose (CMC)) was 158 % of control, the T/C (dose: 5.0 mg/kg/injection, schedule: Q01DX009 (ip), vehicle: saline) was 261 % of control and the T/C (dose: 5.0 mg/kg/injection, schedule: Q04DX003 (ip), vehicle: carboxymethylcellulose (CMC)) was 122 % of control. For the same compound, the T/C (dose: 5.56 mg/kg/injection, schedule: Q01DX009 (ip), vehicle: saline) was 150 % of control, the T/C (dose: 7.5 mg/kg/injection, schedule: Q01DX009 (ip), vehicle: saline) was 152 % of control and the T/C (dose: 8.0 mg/kg/injection, schedule: Q01DX009 (ip), vehicle: carboxymethylcellulose (CMC)) was 97 % of control. The T/C (dose: 8.33 mg/kg/injection, schedule: Q01DX009 (ip), vehicle: saline) was 161 % of control, the T/C (dose: 10.0 mg/kg/injection, schedule: Q04DX003 (ip), vehicle: carboxymethylcellulose (CMC)) was 153 % of control and the T/C [1] was 209 % of control. For the same compound, the T/C (dose: 16.0 mg/kg/injection, schedule: Q01DX009 (ip), vehicle: carboxymethylcellulose (CMC)) was 184 % of control, the T/C (dose: 18.7 mg/kg/injection, schedule: Q01DX009 (ip), vehicle: saline) was 152 % of control and the T/C (dose: 20.0 mg/kg/injection, schedule: Q04DX003 (ip), vehicle: carboxymethylcellulose (CMC)) was 160 % of control. For the same compound, the T/C (dose: 40.0 mg/kg/injection, schedule: Q04DX003 (ip), vehicle: carboxymethylcellulose (CMC)) was 188 % of control and the T/C (dose: 80.0 mg/kg/injection, schedule: Q04DX003 (ip), vehicle: carboxymethylcellulose (CMC)) was 179 % of control.
`S=P(NCCS)(N1CC1)N1CC1` was tested, and the T/C [2] was 95 % of control, the T/C [3] was 122 % of control and the T/C [4] was 109 % of control.
With `c1ccc2c(c1)C1CC(N3CCCCC3)C2c2ccccc21` (stereo unspecified) the T/C [5] was 90 % of control, the T/C [6] was 95 % of control and the T/C [7] was 86 % of control. For the same compound, the T/C [8] was 100 % of control, the T/C [9] was 90 % of control and the T/C [10] was 91 % of control.
`C=C1CC(OC(C)=O)C2C(OC(=O)C2(C)OC(=O)/C(C)=C\C)C2C(C)=CC(=O)C12` (stereo unspecified) was tested, and the T/C (dose: 4.0 mg/kg/injection, schedule: Q01DX009 (ip), vehicle: Klucel (hydroxypropylcellulose) (HPC)) was 100 % of control and the T/C (dose: 8.0 mg/kg/injection, schedule: Q01DX009 (ip), vehicle: Klucel (hydroxypropylcellulose) (HPC)) was 109 % of control.
`COc1c(Br)cc(N=Cc2ccc(N(CCCl)CCCl)cc2C)cc1Br` was tested, and the T/C (dose: 88.0 mg/kg/injection, schedule: Q01DX010 (ip), vehicle: carboxymethylcellulose (CMC)) was 115 % of control, the T/C (dose: 133.0 mg/kg/injection, schedule: Q01DX010 (ip), vehicle: carboxymethylcellulose (CMC)) was 155 % of control and the T/C (dose: 200.0 mg/kg/injection, schedule: Q01DX010 (ip), vehicle: carboxymethylcellulose (CMC)) was 165 % of control. For the same compound, the T/C (dose: 300.0 mg/kg/injection, schedule: Q01DX010 (ip), vehicle: carboxymethylcellulose (CMC)) was 215 % of control.
For `COc1cccc2c1C(=O)c1c(O)c3c(c(O)c1C2=O)C[C@@](O)(C(=O)CO)C[C@@H]3OC1CC(NC(=S)Nc2ccc(F)cc2)C(O)C(C)O1` (stereo partly specified), the T/C [11] was 90 % of control, the T/C [12] was 150 % of control and the T/C [13] was 106 % of control. The T/C (dose: 100.0 mg/kg/injection, schedule: Q01DX009 (ip), vehicle: saline) was 122 % of control.
`O=[N+]([O-])c1ccc(/C=C/c2nccs2)o1` was tested, and the T/C [6] was 100 % of control and the T/C [8] was 103 % of control.
With `CC(C)CCCBr` the T/C [4] was 118 % of control, the T/C [14] was 108 % of control and the T/C [15] was 113 % of control. The T/C [16] was 112 % of control, the T/C [17] was 122 % of control and the T/C [18] was 108 % of control.
For `CCO/C=C(\C#N)C(=O)O`, the T/C [14] was 88 % of control, the T/C [15] was 111 % of control and the T/C [16] was 88 % of control. The T/C [17] was 119 % of control and the T/C [18] was 92 % of control.
With `CN(C)CCNCc1c[nH]c(=O)[nH]c1=O` the T/C [3] was 97 % of control, the T/C [4] was 94 % of control and the T/C [15] was 93 % of control.
In the case of `COC(=O)c1cc(=O)nc(N/N=C/c2ccco2)s1`, the T/C (dose: 50.0 mg/kg/injection, schedule: Q01DX005 (ip), vehicle: saline with Tween-80) is reported as 94 % of control, the T/C (dose: 100.0 mg/kg/injection, schedule: Q01DX005 (ip), vehicle: saline with Tween-80) is reported as 89 % of control and the T/C (dose: 200.0 mg/kg/injection, schedule: Q01DX005 (ip), vehicle: saline with Tween-80) is reported as 87 % of control.
`CC(=O)CC1c2c(ccc3c2OCO3)-c2ccc3cc4c(cc3c2N1C)OCO4` (stereo unspecified) was tested, and the T/C (dose: 5.0 mg/kg/injection, schedule: Q01DX009 (ip), vehicle: Klucel (hydroxypropylcellulose) (HPC)) was 95 % of control, the T/C (dose: 10.0 mg/kg/injection, schedule: Q01DX009 (ip), vehicle: Klucel (hydroxypropylcellulose) (HPC)) was 110 % of control and the T/C (dose: 13.0 mg/kg/injection, schedule: Q01DX010 (ip), vehicle: saline) was 100 % of control. For the same compound, the T/C (dose: 20.0 mg/kg/injection, schedule: Q01DX009 (ip), vehicle: Klucel (hydroxypropylcellulose) (HPC)) was 120 % of control, the T/C (dose: 20.0 mg/kg/injection, schedule: Q01DX010 (ip), vehicle: saline) was 105 % of control and the T/C (dose: 30.0 mg/kg/injection, schedule: Q01DX010 (ip), vehicle: saline) was 110 % of control. For the same compound, the T/C (dose: 40.0 mg/kg/injection, schedule: Q01DX009 (ip), vehicle: Klucel (hydroxypropylcellulose) (HPC)) was 115 % of control.
`Cc1ccc(C2=C(Cl)C(=O)NC2=O)s1` was tested, and the T/C (dose: 12.5 mg/kg/injection, schedule: Q01DX001 (ip), vehicle: saline with Tween-80) was 112 % of control.
In the case of `O=C1CCC2(CCCC2)c2ccccc21`, the T/C (dose: 25.0 mg/kg/injection, schedule: Q01DX009 (ip), vehicle: water) is reported as 95 % of control, the T/C (dose: 50.0 mg/kg/injection, schedule: Q01DX009 (ip), vehicle: water) is reported as 97 % of control and the T/C (dose: 100.0 mg/kg/injection, schedule: Q01DX009 (ip), vehicle: water) is reported as 106 % of control. The T/C (dose: 200.0 mg/kg/injection, schedule: Q01DX009 (ip), vehicle: water) was 103 % of control and the T/C (dose: 400.0 mg/kg/injection, schedule: Q01DX009 (ip), vehicle: water) was 106 % of control.
`NC1CC[N-]CC1.NC1CC[N-]CC1.[Cl][Pt+2]([Cl])([Cl])[Cl]` was tested, and the T/C (dose: 3.12 mg/kg/injection, schedule: Q01DX009 (ip), vehicle: saline) was 109 % of control, the T/C [11] was 100 % of control and 118 % of control and the T/C [1] was 108 % of control. For the same compound, the T/C [12] was 120 % of control and the T/C [13] was 111 % of control.
`CNC(=O)Cc1[nH]ccc1C(=O)O` was tested, and the T/C (dose: 100.0 mg/kg/injection, schedule: Q01DX001 (ip), vehicle: saline with Tween-80) was 106 % of control, the T/C (dose: 200.0 mg/kg/injection, schedule: Q01DX001 (ip), vehicle: saline with Tween-80) was 103 % of control and the T/C (dose: 400.0 mg/kg/injection, schedule: Q01DX001 (ip), vehicle: saline with Tween-80) was 114 % of control.
In the case of `O=C(O)c1ccc(SSc2ccc(C(=O)O)cn2)nc1`, the T/C [5] is reported as 92 % of control and 104 % of control, the T/C [6] is reported as 100 % of control and the T/C (dose: 100.0 mg/kg/injection, schedule: Q04DX003 (ip), vehicle: saline) is reported as 118 % of control. The T/C [7] was 109 % of control and 119 % of control, the T/C [8] was 100 % of control and the T/C (dose: 200.0 mg/kg/injection, schedule: Q04DX003 (ip), vehicle: saline) was 109 % of control. For the same compound, the T/C [9] was 107 % of control and 109 % of control, the T/C [10] was 100 % of control and the T/C (dose: 400.0 mg/kg/injection, schedule: Q04DX003 (ip), vehicle: saline) was 113 % of control.
In the case of `O=[N+]([O-])c1ccc(Sc2ccccc2)c2nonc12`, the T/C (dose: 12.5 mg/kg/injection, schedule: Q01DX009 (ip), vehicle: saline with Tween-80) is reported as 88 % of control, the T/C [2] is reported as 107 % of control and the T/C [3] is reported as 116 % of control.
